Results on 32 molecules are retold here after US12239643B2, “Therapeutic agent for inflammatory diseases, autoimmune diseases, fibrotic diseases, and cancer diseases” (MEIJI SEIKA PHARMA CO., LTD., priority 2018, dated 2025).

The assay deals with PDE4. The experiment in a line: Evaluation of PDE4 inhibitory activity, scintillation proximity assay. It is filed as biochemical. As to conditions: scintillation proximity assay; read-out: PDE4 Inhibitory Activity (Evaluation 1; concentration for the inhibition rate of 50%). The gist of the method: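 IC50 was derived from inhibition curves, referenced to an enzyme-free blank and a DMSO-only control. Compound, PDE4 preparation and tritiated cAMP reacted 120 min at RT in Tris-HCl buffer (pH 7.4) with MgCl2, EGTA and BSA; YSi-SPA beads with ZnSO4 bound product before scintillation counting.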
A general note: SPA uses beads or plates that emit light when radiolabelled molecules are held near them.

Consider `CC(C)(O)C(F)(F)Oc1ccc(-c2ccccn2)c2oc(N3CC4CC(C3)N4)nc12` [Example 289, 1-((2-(3,6-Diazabicyclo[3.1.1]heptan-3-yl)-7-(pyridin-2-yl)benzo[d]oxazol-4-yl)oxy)-1,1-difluoro-2-methylpropan-2-ol], for which the IC50 is below 100 nM. On to `CC(C)(O)C(F)(F)Oc1ccc(-c2ncco2)c2oc(N3CC4CC(C3)N4)nc12` [Example 290, 1-((2-(3,6-Diazabicyclo[3.1.1]heptan-3-yl)-7-(oxazol-2-yl)benzo[d]oxazol-4-yl)oxy)-1,1-difluoro-2-methylpropan-2-ol], for which the IC50 was below 100 nM. Then `CC(C)(O)c1cc(-c2cscn2)c2oc(N3CC4CCC(C3)N4)nc2c1OC(F)(F)F` [Example 291, 2-(2-(3,8-Diazabicyclo[3.2.1]octan-3-yl)-7-(thiazol-4-yl)-4-(trifluoromethoxy)benzo[d]oxazol-5-yl)propan-2-ol], with below 100 nM. With `OC(c1cc(-c2nccs2)c2oc(N3CC4CC(C3)N4)nc2c1OC(F)(F)F)C(F)F` (centres unmarked) [Example 292, 1-(2-(3,6-Diazabicyclo[3.1.1]heptan-3-yl)-7-(thiazol-2-yl)-4-(trifluoromethoxy)benzo[d]oxazol-5-yl)-2,2-difluoroethan-1-ol], the IC50 was below 100 nM. In the case of `OC(c1cc(-c2nccs2)c2oc(N3CC4CC(C3)N4)nc2c1OC(F)(F)F)C(F)F` (centres unmarked) [Example 293, 1-(2-(3,6-Diazabicyclo[3.1.1]heptan-3-yl)-7-(thiazol-2-yl)-4-(trifluoromethoxy)benzo[d]oxazol-5-yl)-2,2-difluoroethan-1-ol], the IC50 was below 100 nM. With `CC(C)(O)CC(F)(F)Oc1ccc(-c2nccs2)c2oc(N3CC4CC(C3)N4)nc12` [Example 295, 4-((2-(3,6-Diazabicyclo[3.1.1]heptan-3-yl)-7-(thiazol-2-yl)benzo[d]oxazol-4-yl)oxy)-4,4-difluoro-2-methylbutan-2-ol] the figure was below 100 nM.

Consider `CC(O)(c1ccc(-c2nccs2)c2oc(N3CC4CC(C3)N4)nc12)C(F)F` (centres unmarked) [Example 297, 2-(2-(3,6-Diazabicyclo[3.1.1]heptan-3-yl)-7-(thiazol-2-yl)benzo[d]oxazol-4-yl)-1,1-difluoropropan-2-ol], for which the IC50 is below 100 nM. With `COC(C)(C)c1cc(-c2cscn2)c2oc(N3CC4CCC(C3)N4)nc2c1OC(F)(F)F` [Example 298, 2-(3,8-Diazabicyclo[3.2.1]octan-3-yl)-5-(2-methoxypropan-2-yl)-7-(thiazol-4-yl)-4-(trifluoromethoxy)benzo[d]oxazole] the figure was below 100 nM; with `OC1(c2cc(-c3cscn3)c3oc(N4CC5CC(C4)N5)nc3c2OC(F)(F)F)CC1` [Example 299, 1-(2-(3,6-Diazabicyclo[3.1.1]heptan-3-yl)-7-(thiazol-4-yl)-4-(trifluoromethoxy)benzo[d]oxazol-5-yl)cyclopropan-1-ol], below 100 nM; with `OC(c1cc(-c2cscn2)c2oc(N3CC4CC(C3)N4)nc2c1OC(F)(F)F)C(F)F` (centres unmarked) [Example 300, 1-(2-(3,6-Diazabicyclo[3.1.1]heptan-3-yl)-7-(thiazol-4-yl)-4-(trifluoromethoxy)benzo[d]oxazol-5-yl)-2,2-difluoroethan-1-ol], below 100 nM. Take `OC(c1cc(-c2cscn2)c2oc(N3CC4CC(C3)N4)nc2c1OC(F)(F)F)C(F)F` (centres unmarked) [Example 301, 1-(2-(3,6-Diazabicyclo[3.1.1]heptan-3-yl)-7-(thiazol-4-yl)-4-(trifluoromethoxy)benzo[d]oxazol-5-yl)-2,2-difluoroethan-1-ol]: the IC50 is below 100 nM. Regarding `OC(c1cc(-c2cscn2)c2oc(N3CC4CCC(C3)N4)nc2c1OC(F)(F)F)C(F)F` (centres unmarked) [Example 302, 1-(2-(3,8-Diazabicyclo[3.2.1]octan-3-yl)-7-(thiazol-4-yl)-4-(trifluoromethoxy)benzo[d]oxazol-5-yl)-2,2-difluoroethan-1-ol], the IC50 was below 100 nM. As to `OC(c1cc(-c2cscn2)c2oc(N3CC4CCC(C3)N4)nc2c1OC(F)(F)F)C(F)F` (centres unmarked) [Example 303, 1-(2-(3,8-Diazabicyclo[3.2.1]octan-3-yl)-7-(thiazol-4-yl)-4-(trifluoromethoxy)benzo[d]oxazol-5-yl)-2,2-difluoroethan-1-ol], the IC50 is below 100 nM. Take `OC1CCC(Oc2ccc(-c3nccs3)c3oc(N4CC5CC(C4)N5)nc23)CC1` (centres unmarked) [Example 305, 4-((2-(3,6-Diazabicyclo[3.1.1]heptan-3-yl)-7-(thiazol-2-yl)benzo[d]oxazol-4-yl)oxy)cyclohexan-1-ol]: the IC50 is below 100 nM. Regarding `CC(C)(O)C(F)(F)Oc1ccc(-c2cscn2)c2oc(N3CC4CC(C3)N4)nc12` [Example 307, 1-((2-(3,6-Diazabicyclo[3.1.1]heptan-3-yl)-7-(thiazol-4-yl)benzo[d]oxazol-4-yl)oxy)-1,1-difluoro-2-methylpropan-2-ol], the IC50 is below 100 nM. As to `CC(C)(O)C(F)(F)Oc1ccc(-c2cscn2)c2oc(N3CC4CCC(C3)N4)nc12` [Example 308, 1-((2-(3,8-Diazabicyclo[3.2.1]octan-3-yl)-7-(thiazol-4-yl)benzo[d]oxazol-4-yl)oxy)-1,1-difluoro-2-methylpropan-2-ol], the IC50 is below 100 nM. Regarding `CC(O)C(F)(F)Oc1ccc(-c2cscn2)c2oc(N3CC4CC(C3)N4)nc12` (centres unmarked) [Example 309, 1-((2-(3,6-Diazabicyclo[3.1.1]heptan-3-yl)-7-(thiazol-4-yl)benzo[d]oxazol-4-yl)oxy)-1,1-difluoropropan-2-ol], the IC50 is below 100 nM. For `CC(O)C(F)(F)Oc1ccc(-c2cscn2)c2oc(N3CC4CCC(C3)N4)nc12` (centres unmarked) [Example 310, 1-((2-(3,8-Diazabicyclo[3.2.1]octan-3-yl)-7-(thiazol-4-yl)benzo[d]oxazol-4-yl)oxy)-1,1-difluoropropan-2-ol], the IC50 was below 100 nM.

Take `OCC(F)(F)Oc1ccc(-c2cscn2)c2oc(N3CC4CC(C3)N4)nc12` [Example 311, 2-((2-(3,6-Diazabicyclo[3.1.1]heptan-3-yl)-7-(thiazol-4-yl)benzo[d]oxazol-4-yl)oxy)-2,2-difluoroethan-1-ol]: the IC50 was below 100 nM. In the case of `OCC(F)(F)Oc1ccc(-c2cscn2)c2oc(N3CC4CCC(C3)N4)nc12` [Example 312, 2-((2-(3,8-Diazabicyclo[3.2.1]octan-3-yl)-7-(thiazol-4-yl)benzo[d]oxazol-4-yl)oxy)-2,2-difluoroethan-1-ol], the IC50 was below 100 nM. For the molecule `CC(C)(O)C(Oc1ccc(-c2nccs2)c2oc(N3CC4CC(C3)N4)nc12)C(F)(F)F` (centres unmarked) [Example 313, 3-((2-(3,6-Diazabicyclo[3.1.1]heptan-3-yl)-7-(thiazol-2-yl)benzo[d]oxazol-4-yl)oxy)-4,4,4-trifluoro-2-methylbutan-2-ol], the IC50 is below 100 nM. For `O=S1(=O)CCC(Oc2ccc(-c3nccs3)c3oc(N4CC5CC(C4)N5)nc23)CC1` [Example 314, 4-((2-(3,6-Diazabicyclo[3.1.1]heptan-3-yl)-7-(thiazol-2-yl)benzo[d]oxazol-4-yl)oxy)tetrahydro-2H-thiopyran 1,1-dioxide], the IC50 was below 100 nM.

As for `OCC(F)(F)Oc1ccc(-n2cccn2)c2oc(N3CC4CC(C3)N4)nc12` [Example 320, 2-((2-(3,6-Diazabicyclo[3.1.1]heptan-3-yl)-7-(1H-pyrazol-1-yl)benzo[d]oxazol-4-yl)oxy)-2,2-difluoroethan-1-ol], the IC50 was below 100 nM. With `c1csc(-c2ccc(C3CC3)c3nc(N4CC5CC(C4)N5)oc23)n1` [Example 344, 2-(3,6-Diazabicyclo[3.1.1]heptan-3-yl)-4-cyclopropyl-7-(thiazol-2-yl)benzo[d]oxazole], the IC50 is below 100 nM. In the case of `CSc1ccc(-c2nccs2)c2oc(N3CC4CC(C3)N4)nc12` [Example 345, 2-(3,6-Diazabicyclo[3.1.1]heptan-3-yl)-4-(methylthio)-7-(thiazol-2-yl)benzo[d]oxazole], the IC50 is below 100 nM. On to `C=CC(F)(F)Oc1ccc(-c2nccs2)c2oc(N3CC4CC(C3)N4)nc12` [Example 351, 2-(3,6-Diazabicyclo[3.1.1]heptan-3-yl)-4-((1,1-difluoroallyl)oxy)-7-(thiazol-2-yl)benzo[d]oxazole], for which the IC50 was below 100 nM. Turning to `O=C(NCc1ccccc1)c1ccc(-c2nccs2)c2oc(N3CC4CC(C3)N4)nc12` [Example 361, N-benzyl-2-(3,6-diazabicyclo[3.1.1]heptan-3-yl)-7-(thiazol-2-yl)benzo[d]oxazole-4-carboxamide], the IC50 was below 100 nM. With `CC(C)C(O)C(F)(F)Oc1ccc(-c2nccs2)c2oc(N3CC4CC(C3)N4)nc12` (centres unmarked) [Example 362, 1-((2-(3,6-Diazabicyclo[3.1.1]heptan-3-yl)-7-(thiazol-2-yl)benzo[d]oxazol-4-yl)oxy)-1,1-difluoro-3-methylbutan-2-ol], the IC50 is below 100 nM.

As for `O=C(O)c1ccc(-c2nccs2)c2oc(N3CC4CC(C3)N4)nc12` [Example 366, 2-(3,6-Diazabicyclo[3.1.1]heptan-3-yl)-7-(thiazol-2-yl)benzo[d]oxazole-4-carboxylic acid], the IC50 was in the range of 100 to 1000 nM.

`O=C(NO)c1ccc(-c2nccs2)c2oc(N3CC4CC(C3)N4)nc12` [Example 367, 2-(3,6-Diazabicyclo[3.1.1]heptan-3-yl)-N-hydroxy-7-(thiazol-2-yl)benzo[d]oxazole-4-carboxamide]: the IC50 was below 100 nM. `CC(C)(O)c1cc(-c2nccs2)c2oc(N3CC4CCC(C3)N4O)nc2c1OC(F)(F)F` [Example 368, 3-(5-(2-Hydroxypropan-2-yl)-7-(thiazol-2-yl)-4-(trifluoromethoxy)benzo[d]oxazol-2-yl)-3,8-diazabicyclo[3.2.1]octan-8-ol]: the IC50 lay in the range of 100 to 1000 nM.

As to `CC(C)(O)C(F)(F)Oc1ccc(-c2nccs2)c2oc(N3CC4CC(C3)N4O)nc12` [Example 371, 3-(4-(1,1-Difluoro-2-hydroxy-2-methylpropoxy)-7-(thiazol-2-yl)benzo[d]oxazol-2-yl)-3,6-diazabicyclo[3.1.1]heptan-6-ol], the IC50 is below 100 nM.
